Experimental data taken from ChEMBL document CHEMBL4184300, “Design and characterization of bivalent compounds as potential neuroprotectants for Alzheimer's disease: Impact of the spacer on biological activity” (Bioorg Med Chem Lett, 2018).
Calls of active or inactive are those of the source. No cut-off for these calls is given here.

Experiments:
[1] = Neuroprotective activity against tetracycline removal-induced cytotoxicity in human MC65 cells assessed as increase in cell viability after 72 hrs by MTT assay; type: functional, cell-based; details: MC65, 72 h
[2] = organism: Homo sapiens; assay: Neuroprotective activity against tetracycline removal-induced cytotoxicity in human MC65 cells assessed as reduction in oxidative stress at 0.3 uM after 48 hrs by DCFH-DA dye based fluorescence assay; type: functional, cell-based
[3] = Metal chelating activity assessed as Cu2+-compound complex formation at 50 uM after 10 mins by UV-Vis spectroscopic method
[4] = Metal chelating activity assessed as Fe2+-compound complex formation at 50 uM after 10 mins by UV-Vis spectroscopic method
[5] = Metal chelating activity assessed as Zn2+-compound complex formation at 50 uM after 10 mins by UV-Vis spectroscopic method
[6] = organism: Homo sapiens; assay: Neuroprotective activity against tetracycline removal-induced cytotoxicity in human MC65 cells assessed as reduction in oxidative stress at 8 mM after 48 hrs by DCFH-DA dye based fluorescence assay; type: functional, cell-based
[7] = organism: Homo sapiens; assay: Neuroprotective activity against tetracycline removal-induced cytotoxicity in human MC65 cells assessed as reduction in oxidative stress at 32 uM after 48 hrs by DCFH-DA dye based fluorescence assay; type: functional, cell-based
[8] = tested on: N2a; assay: Neuroprotective activity in mouse N2A cells assessed as induction of neurite outgrowth at 0.3 uM after 48 hrs by fluorescence microscopic analysis; type: functional, cell-based

Structure (SMILES)	Activity [3]	Activity [4]	Activity [5]	EC50 [1] [µM]	Activity [2]	Activity [6]	Activity [7]	Activity [8]
CC(=O)N[C@@H](CS)C(=O)O						inactive		
COc1cc(/C=C/C(=O)C(Cc2cn(CCCCNC(=O)CCC(=O)NCCCN3CCN(CCCNC(=O)CCN4CCN(CCCN[C@H]5CC[C@@]6(C)C(=CC[C@H]7[C@@H]8CC[C@H]([C@H](C)CCCC(C)C)[C@@]8(C)CC[C@@H]76)C5)CC4)CC3)nn2)C(=O)/C=C/c2ccc(O)c(OC)c2)ccc1O	inactive	inactive	inactive	0.0309	Active			
Cc1c(C)c2c(c(C)c1O)CCC(C)(C(=O)O)O2 (stereo not drawn)							Active	
COc1cc(/C=C/C(=O)C(Cc2cn(CCCCC(=O)NCCCN3CCN(CCCNC(=O)CCN4CCN(CCCN[C@H]5CC[C@@]6(C)C(=CC[C@H]7[C@@H]8CC[C@H]([C@H](C)CCCC(C)C)[C@@]8(C)CC[C@@H]76)C5)CC4)CC3)nn2)C(=O)/C=C/c2ccc(O)c(OC)c2)ccc1O	inactive	inactive	inactive	0.0643	Active			
COc1cc(/C=C/C(=O)C(Cc2cn(CCC(=O)NCCCN3CCN(CCCNC(=O)CCC(=O)NCCCN4CCN(CCCNCCN[C@H]5CC[C@@]6(C)C(=CC[C@H]7[C@@H]8CC[C@H]([C@H](C)CCCC(C)C)[C@@]8(C)CC[C@@H]76)C5)CC4)CC3)nn2)C(=O)/C=C/c2ccc(O)c(OC)c2)ccc1O	inactive	inactive	inactive	0.0339	Active			

Further lines, with some results ahead:

Activity [3]	Activity [4]	Activity [5]	Structure (SMILES)	EC50 [1] [µM]	Activity [2]	Activity [6]	Activity [7]	Activity [8]
inactive	inactive	inactive	COc1cc(/C=C/C(=O)C(Cc2cn(CCCCC(=O)NCCCN3CCN(CCCNCCN[C@H]4CC[C@@]5(C)C(=CC[C@H]6[C@@H]7CC[C@H]([C@H](C)CCCC(C)C)[C@@]7(C)CC[C@@H]65)C4)CC3)nn2)C(=O)/C=C/c2ccc(O)c(OC)c2)ccc1O	0.0215	Active			
inactive	inactive	inactive	COc1cc(/C=C/C(=O)C(Cc2cn(CCCCC(=O)NCCCN3CCN(CCCNC(=O)CCC(=O)NCCCN4CCN(CCCNCCN[C@H]5CC[C@@]6(C)C(=CC[C@H]7[C@@H]8CC[C@H]([C@H](C)CCCC(C)C)[C@@]8(C)CC[C@@H]76)C5)CC4)CC3)nn2)C(=O)/C=C/c2ccc(O)c(OC)c2)ccc1O	0.094	Active			
inactive	inactive	inactive	COc1cc(/C=C/C(=O)C(Cc2cn(CCC(=O)NCCCN3CCN(CCCNCCN[C@H]4CC[C@@]5(C)C(=CC[C@H]6[C@@H]7CC[C@H]([C@H](C)CCCC(C)C)[C@@]7(C)CC[C@@H]65)C4)CC3)nn2)C(=O)/C=C/c2ccc(O)c(OC)c2)ccc1O	0.0239	Active			inactive
inactive	inactive	inactive	COc1cc(/C=C/C(=O)C(Cc2cn(CCCCNC(=O)CCC(=O)NCCCN3CCN(CCCNCCN[C@H]4CC[C@@]5(C)C(=CC[C@H]6[C@@H]7CC[C@H]([C@H](C)CCCC(C)C)[C@@]7(C)CC[C@@H]65)C4)CC3)nn2)C(=O)/C=C/c2ccc(O)c(OC)c2)ccc1O	0.0406	Active			
inactive	inactive	inactive	COc1cc(/C=C/C(=O)C(Cc2cn(CCNC(=O)CCC(=O)NCCCN3CCN(CCCNC(=O)CCN4CCN(CCCN[C@H]5CC[C@@]6(C)C(=CC[C@H]7[C@@H]8CC[C@H]([C@H](C)CCCC(C)C)[C@@]8(C)CC[C@@H]76)C5)CC4)CC3)nn2)C(=O)/C=C/c2ccc(O)c(OC)c2)ccc1O	0.0316	Active			
inactive	inactive	inactive	COc1cc(/C=C/C(=O)C(Cc2cn(CCC(=O)NCCCN3CCN(CCCNC(=O)CCN4CCN(CCCN[C@H]5CC[C@@]6(C)C(=CC[C@H]7[C@@H]8CC[C@H]([C@H](C)CCCC(C)C)[C@@]8(C)CC[C@@H]76)C5)CC4)CC3)nn2)C(=O)/C=C/c2ccc(O)c(OC)c2)ccc1O	0.0337	Active			
inactive	inactive	inactive	COc1cc(/C=C/C(=O)C(Cc2cn(CCNC(=O)CCC(=O)NCCCN3CCN(CCCNCCN[C@H]4CC[C@@]5(C)C(=CC[C@H]6[C@@H]7CC[C@H]([C@H](C)CCCC(C)C)[C@@]7(C)CC[C@@H]65)C4)CC3)nn2)C(=O)/C=C/c2ccc(O)c(OC)c2)ccc1O	0.0342	Active			
